Test results taken from US4089974A, “5-Carboxy-phenylenebis(carbonylimino)benzene carboxylic and dicarboxylic acids and salts” (American Cyanamid Company, priority 1977, dated 1978).
Counter-ions that a name gives are not always drawn.

Experiments:
[1] = system: Citrated sheep plasma (CSP); assay: in vitro anti-coagulant activity (AC), citrated sheep plasma clotting; type: biochemical
Description: The sheep RBC's, kept in suspension throughout the clotting incubation time, become enmeshed in the fibrin matrix if a clots forms. Upon centrifugation of the plate, untrapped RBC's form buttons, the sizes of which correspond to the degree of clot inhibition; this providing a measure of anti-coagulant activity (AC). Sodium heparin is used as a positive control and activity is reported in wells appearing in Table I.

[2] = system: human C1; assay: Test, Code 026 (C1 inhibitor); type: biochemical
Source text: An active inhibitor protects C2 from C1 and C4; (ii) Test, Code 035 (C3-C9 inhibitor) -- This test determines the ability of the late components of human complement (C3-C9) to lyse EAC 142 in the presence of appropriate dilutions of the test compound. An active inhibitor protects EAC 142 from lysis by human C3-C9; (iii) Test, Code 036 (C-Shunt inhibitor) -- In this test human erythrocytes rendered fragile are lysed in autologous serum via the shunt pathway activated by cobra venom factor in the presence of appropriate dilutions of the test compound. Inhibition of the shunt pathway results in failure of lysis; (iv) Forssman Vasculitis Test -- Here, the well known complement dependent lesion, Forssman vasculitis, is produced in guinea pigs by intradermal injection of rabbit anti-Forssman antiserum. […]

[3] = Intrinsic Therapeutic Index (Code 026 versus AC); conditions: Table II
Source text: The computation of an Intrinsic Therapeutic Index (ITI) was devised to correlate the results, expressed in wells, obtained in the in vitro Code 026 (C1 inhibitor) test and the in vitro anti-coagulant (AC) test into a meaningful value which would aid in the net evaluation of the activity of the compounds of this invention.
The ITI of a given compound may be defined as the antilogarithm of the logarithmic (base 2) difference between the highest serial dilution in wells which is active in the Code 026 test and the highest serial dilution in wells providing activity in the anti-coagulant test. The ITI is thus a measure of the separation of anti-complement and anti-coagulant activities; the higher the numerical value the more therapeutically useful the separation of activities.

[4] = system: complement system; conditions: cited from earlier work; for anticomplementary effect: British Journal of Experimental Pathology, 33, 327-339 (1952)
[5] = system: hereditary angioneurotic edema; conditions: The New England Journal of Medicine, 286, 808-812 (1972); cited from earlier work

## O=C([O-])c1cc(C(=O)Nc2ccc(C(=O)[O-])c(C(=O)[O-])c2)cc(C(=O)Nc2ccc(C(=O)[O-])c(C(=O)[O-])c2)c1.[Na+].[Na+].[Na+].[Na+].[Na+] [4,4'-[5-Carboxy-1,3-phenylenebis(carbonylimino)]-diphthalic acid pentasodium salt]
[1]; Table I, two-fold serial dilution assay, sodium heparin positive control
  AC Wells: ≤ -2 Wells
[1]; Table II, in vitro
  Anti-Coagulant Activity (Wells) AC: -2 Wells
[2]; Table I, two-fold serial dilution assay, higher well number indicates higher activity
  C1 026 Wells: +2 Wells
[2]; Table II, in vitro
  Complement Inhibiting Activity (Wells) Code 026: +2 Wells
[3]; antilogarithm of the logarithmic (base 2) difference
  Intrinsic Therapeutic Index: 16
[3]; log base 2 difference, Code 026 minus AC
  Logarithmic Difference Expressed as Wells: +4 Wells

## Cc1ccc(C(=O)Nc2ccc(S(=O)(=O)O)c3cc(S(=O)(=O)O)cc(S(=O)(=O)O)c23)cc1NC(=O)c1cccc(NC(=O)Nc2cccc(C(=O)Nc3cc(C(=O)Nc4ccc(S(=O)(=O)O)c5cc(S(=O)(=O)O)cc(S(=O)(=O)O)c45)ccc3C)c2)c1 [Suramin, 8-(3-benzamido-4-methylbenzamido)naphthalene-1, -3,5-trisulfonic acid]
[4]; Clin. Exp. Immunol., 10, 127-138 (1972)
  inhibition of the complement system: competitive inhibitor of the complement system
[5]
  treatment of hereditary angioneurotic edema: used with success

## Nc1ccc2cc(S(=O)(=O)O)cc(O)c2c1N=Nc1ccc(NC(=O)Nc2ccc(N=Nc3c(N)ccc4cc(S(=O)(=O)O)cc(O)c34)c(S(=O)(=O)O)c2)cc1S(=O)(=O)O [chlorazol fast pink, 3,3'-ureylenebis-[6-(2-amino-8-hydroxy-6-sulfo-1-naphthylazo)]benzenesulfonic acid, tetrasodium salt]
[4]
  anticomplementary effect: reported to have an anticomplementary effect

## NCCCCCC(=O)O [epsilon-aminocaproic acid]
[5]
  treatment of hereditary angioneurotic edema: used with success

## NC[C@H]1CC[C@H](C(=O)O)CC1 [tranexamic acid]
[5]
  treatment of hereditary angioneurotic edema: used with success

## heparin
[4]
  anticomplementary effect: reported to have an anticomplementary effect
